Values quoted from earlier work, collected in paper PMC13005129 (Biochemistry, 2025).
Starred links: 1 amine or outer side, 2 acyl side, 3 side chain; linkers in the order of their positions; H or OH if unused. Positions of bridges follow the written chain, without caps; N, C: chain ends. Non-standard residues stand in square brackets, D forms with d. Residues, ends and D or L forms follow the SMILES beside them. *: point of attachment. Leu(3R-OH,Nα-propionyl) = CCC(=O)N[C@H](C(=O)*)[C@H](O)C(C)C; X1 = CC(C)[C@@H](O[*:3])[C@H](N[*:1])C(=O)[*:2]; NMeT = CN[C@H](C(=O)O)[C@@H](C)O; dPhLac = O=C(O)[C@H](O)Cc1ccccc1; NMeA = CN[C@@H](C)C(=O)O; NMeDha = C=C(NC)C(=O)O

Tests used:
Gq/11 = settings: cultured cells
[1] = tested on: M3Rs expressed by immortalized human airway smooth muscle (ASM) cells

| Compound | block of M3R-mediated increases in [Ca2+]i (Gq/11) | change in [Ca2+]i on M3R activation [1] |
| --- | --- | --- |
| C=C1C(=O)N[C@@H](C)C(=O)N(C)[C@@H](C)C(=O)N[C@@H]([C@H](OC(=O)[C@@H](NC(=O)CC)[C@H](O)C(C)C)C(C)C)C(=O)N(C)[C@@H]([C@@H](C)OC)C(=O)O[C@H](C(C)C)[C@H](NC(C)=O)C(=O)O[C@H](Cc2ccccc2)C(=O)N1C [FR900359] (Ac-[X1][dPhLac][NMeDha]A[NMeA][X1](Leu(3R-OH,Nα-propionyl))[NMeT](Me); ester 1-C) | can be effectively blocked |  |
| CC(=O)OC(C)C[N+](C)(C)C (centres unmarked) [methacholine] |  | leads to an increase in [Ca^2+]i |
